Assay results: ChEMBL document CHEMBL1201862, “PubChem BioAssay data set” (2004)
Calls of active or inactive are those of the source.

Assays:
[1] = inhibition of ARNT PAS-B/TACC3 complex formation – biochemical, AlphaScreen, cherry-picked samples, confirmation (AID 651703); format: functional, Homo sapiens;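 note: His-tagged ARNT PAS-B domain paired with GST-TACC3 E629A dimer coactivator fragment; potency of inhibitors that break up the complex and lower AlphaScreen signal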
P388 = assay: cells; format: functional; settings: Mus musculus
P388/ADR = assay: cells; format: functional; settings: Mus musculus
SN12K1 = assay: cells; format: functional; settings: Homo sapiens
[2] = HIV-1 AD8 envelope cell-cell fusion blockers – cherry-pick, dose response (AID 652062); format: functional, cell-based;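 note: luciferase signal from cell-cell fusion driven by HIV-1 clade B AD8 Env; potency is for inhibitors of fusion seen as a drop in luminescence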
[3] = viability loss in CEM21 cells – cell-based, CellTiter-Glo luminescence, cherry-picked, cytotoxicity control for viral fusion inhibitor project, dose response (AID 652042); format: functional;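 note: potency for signal decrease meaning cytotoxicity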
[4] = off-target signal loss in HeLa-CEM21 co-culture – HeLa F-luc CTL cells, cherry-picked, counter-screen for HIV-1 Env fusion inhibitor project, dose response (AID 652040); format: functional, cell-based;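 note: potency for signal decrease marking cytotoxic or nonspecific inhibition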
[5] = blockers of HIV-1 ZM109 envelope-driven cell-cell fusion – HeLa effector, CEM target cells, luciferase, cherry-pick, dose response (AID 652058); format: functional, cell-based;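 note: luciferase signal from HIV-1 Env mediated cell-cell fusion of effector and target cells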
cells = format: functional, cell-based; settings: HEK-CNG
Galanin receptor type 3 = target: T1, Galanin receptor type 3 (Homo sapiens, UniProt O60755); assay: Fluorescence-based cell-based primary high throughput dose response assay to identify antagonists of the Galanin Receptor 3 (GalR3).; format: functional
T1 sequence (O60755 whole entry): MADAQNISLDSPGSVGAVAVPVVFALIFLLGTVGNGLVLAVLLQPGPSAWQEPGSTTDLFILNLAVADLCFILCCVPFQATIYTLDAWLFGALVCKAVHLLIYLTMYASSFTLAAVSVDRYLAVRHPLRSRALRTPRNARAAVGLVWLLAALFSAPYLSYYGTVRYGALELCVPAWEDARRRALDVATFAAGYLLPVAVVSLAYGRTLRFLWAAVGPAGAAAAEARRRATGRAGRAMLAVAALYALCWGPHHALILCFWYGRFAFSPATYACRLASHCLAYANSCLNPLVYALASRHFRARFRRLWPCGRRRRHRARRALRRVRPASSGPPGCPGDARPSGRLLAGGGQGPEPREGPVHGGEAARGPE

[6] = target: Photoreceptor-specific nuclear receptor (Homo sapiens, UniProt Q9Y5X4); format: functional, cell-based;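 note: CHO-S cells with Gal4-NCOR and VP16-NR2E3 two-hybrid luciferase reporter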
Photoreceptor-specific nuclear receptor, sequence (Q9Y5X4 whole entry, the tested form may be a part): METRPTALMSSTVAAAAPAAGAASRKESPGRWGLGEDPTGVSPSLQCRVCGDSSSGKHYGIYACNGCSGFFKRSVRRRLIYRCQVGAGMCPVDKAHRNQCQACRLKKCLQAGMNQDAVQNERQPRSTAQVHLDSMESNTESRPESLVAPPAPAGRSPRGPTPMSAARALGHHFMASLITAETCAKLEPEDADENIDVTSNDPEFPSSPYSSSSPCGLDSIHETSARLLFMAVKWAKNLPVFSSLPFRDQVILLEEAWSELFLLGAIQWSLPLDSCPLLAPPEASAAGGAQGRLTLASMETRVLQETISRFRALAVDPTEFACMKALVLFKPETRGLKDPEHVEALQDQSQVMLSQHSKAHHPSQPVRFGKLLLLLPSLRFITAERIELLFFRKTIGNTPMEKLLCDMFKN

[7] = target: T2, Sentrin-specific protease 8 (Homo sapiens, UniProt Q96LD8); assay: inhibition of human SENP8 cleavage activity – biochemical, luminescence, SAR follow-up (AID 504501); format: functional
T2 sequence (Q96LD8 whole entry): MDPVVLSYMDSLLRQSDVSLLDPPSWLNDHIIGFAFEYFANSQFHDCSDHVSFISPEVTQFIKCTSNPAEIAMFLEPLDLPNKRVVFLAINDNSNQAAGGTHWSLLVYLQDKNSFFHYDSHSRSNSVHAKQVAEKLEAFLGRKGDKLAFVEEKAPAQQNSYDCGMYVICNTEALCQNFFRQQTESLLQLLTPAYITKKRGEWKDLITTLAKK

[8] = target: T3, Sentrin-specific protease 6 (Homo sapiens, UniProt Q9GZR1); assay: SAR Analysis of small molecule inhibitors of Sentrin-specific protease 6 (SENP6) using a Luminescent assay. [Related pubchem assays (depositor defined):AID2582, AID2599]; format: functional
T3 sequence (Q9GZR1 whole entry): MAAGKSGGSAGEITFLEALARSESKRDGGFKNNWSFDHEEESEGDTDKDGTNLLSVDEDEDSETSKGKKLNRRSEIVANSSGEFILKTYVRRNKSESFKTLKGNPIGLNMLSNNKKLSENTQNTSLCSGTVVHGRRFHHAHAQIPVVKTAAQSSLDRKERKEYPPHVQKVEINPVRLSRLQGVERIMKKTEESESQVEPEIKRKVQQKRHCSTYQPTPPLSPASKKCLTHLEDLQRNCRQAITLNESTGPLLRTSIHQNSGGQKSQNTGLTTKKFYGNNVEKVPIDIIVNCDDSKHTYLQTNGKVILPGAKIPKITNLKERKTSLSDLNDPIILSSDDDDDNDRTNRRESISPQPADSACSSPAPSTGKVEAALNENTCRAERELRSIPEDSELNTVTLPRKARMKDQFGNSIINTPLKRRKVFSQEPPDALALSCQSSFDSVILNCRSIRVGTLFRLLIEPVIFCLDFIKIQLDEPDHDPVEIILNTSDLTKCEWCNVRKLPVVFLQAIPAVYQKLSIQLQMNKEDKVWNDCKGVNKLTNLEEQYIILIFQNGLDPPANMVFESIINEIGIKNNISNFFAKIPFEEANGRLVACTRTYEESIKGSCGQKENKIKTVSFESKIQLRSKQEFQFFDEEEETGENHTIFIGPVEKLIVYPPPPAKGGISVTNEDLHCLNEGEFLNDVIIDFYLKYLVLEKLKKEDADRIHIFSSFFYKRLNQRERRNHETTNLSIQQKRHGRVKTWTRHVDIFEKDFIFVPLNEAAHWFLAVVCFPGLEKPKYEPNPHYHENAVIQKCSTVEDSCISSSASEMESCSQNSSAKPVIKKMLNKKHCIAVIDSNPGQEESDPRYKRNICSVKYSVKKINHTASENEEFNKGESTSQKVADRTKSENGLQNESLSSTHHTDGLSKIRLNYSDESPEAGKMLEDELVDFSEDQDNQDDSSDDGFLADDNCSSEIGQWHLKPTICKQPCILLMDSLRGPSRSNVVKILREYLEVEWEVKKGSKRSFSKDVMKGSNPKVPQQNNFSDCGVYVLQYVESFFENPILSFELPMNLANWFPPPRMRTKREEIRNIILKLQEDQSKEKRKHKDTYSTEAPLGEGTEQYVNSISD

[9] = target: T4, Sentrin-specific protease 7 (Homo sapiens, UniProt Q9BQF6); assay: inhibition of human SENP7 cleavage activity – biochemical, luminescence, SAR follow-up (AID 504497); format: functional
T4 sequence (Q9BQF6 whole entry): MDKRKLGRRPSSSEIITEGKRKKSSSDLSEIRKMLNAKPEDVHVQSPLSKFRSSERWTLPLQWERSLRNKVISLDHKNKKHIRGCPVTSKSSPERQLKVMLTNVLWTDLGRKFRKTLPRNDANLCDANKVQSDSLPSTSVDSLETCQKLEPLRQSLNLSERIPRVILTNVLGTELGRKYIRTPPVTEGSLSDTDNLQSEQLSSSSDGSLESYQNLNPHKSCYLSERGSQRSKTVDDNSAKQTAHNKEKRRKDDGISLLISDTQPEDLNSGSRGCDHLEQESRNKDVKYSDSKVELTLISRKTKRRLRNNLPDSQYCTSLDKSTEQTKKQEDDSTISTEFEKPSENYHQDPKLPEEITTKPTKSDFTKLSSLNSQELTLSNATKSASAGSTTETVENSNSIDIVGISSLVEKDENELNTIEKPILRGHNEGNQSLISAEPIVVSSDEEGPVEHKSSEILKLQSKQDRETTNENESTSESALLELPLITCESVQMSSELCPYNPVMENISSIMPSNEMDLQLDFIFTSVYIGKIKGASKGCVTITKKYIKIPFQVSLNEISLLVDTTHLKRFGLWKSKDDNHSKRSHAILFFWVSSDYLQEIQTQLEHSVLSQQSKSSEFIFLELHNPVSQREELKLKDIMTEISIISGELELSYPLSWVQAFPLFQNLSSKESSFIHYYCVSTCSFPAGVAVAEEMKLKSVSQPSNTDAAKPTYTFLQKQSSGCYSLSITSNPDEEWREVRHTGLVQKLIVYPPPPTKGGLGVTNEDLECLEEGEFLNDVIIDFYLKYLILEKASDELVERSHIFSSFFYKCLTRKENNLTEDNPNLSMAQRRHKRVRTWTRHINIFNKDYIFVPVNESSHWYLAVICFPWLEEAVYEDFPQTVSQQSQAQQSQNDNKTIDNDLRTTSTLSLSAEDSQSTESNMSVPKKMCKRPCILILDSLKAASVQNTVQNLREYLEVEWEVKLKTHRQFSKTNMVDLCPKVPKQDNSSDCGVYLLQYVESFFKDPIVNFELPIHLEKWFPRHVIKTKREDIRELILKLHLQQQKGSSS

Caspase-3 = target: T5, Caspase-3 (Homo sapiens, UniProt P42574); assay: SAR Analysis of small molecule inhibitors of Sentrin-specific proteases (SENPs) using a Caspase-3 Selectivity assay. [Related pubchem assays (depositor defined):AID2540, AID2599, AID434973, AID489001]; format: functional
T5 sequence (P42574 whole entry): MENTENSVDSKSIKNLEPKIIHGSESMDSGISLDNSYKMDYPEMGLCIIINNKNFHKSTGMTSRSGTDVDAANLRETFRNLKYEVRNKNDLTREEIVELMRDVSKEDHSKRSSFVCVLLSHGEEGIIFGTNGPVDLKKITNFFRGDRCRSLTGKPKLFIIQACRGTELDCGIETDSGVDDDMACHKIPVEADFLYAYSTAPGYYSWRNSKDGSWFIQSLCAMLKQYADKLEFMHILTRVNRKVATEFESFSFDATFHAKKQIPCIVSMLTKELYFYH

[10] = viability of HCT116 lacking mutant beta-catenin – cell-based, human colon tumor, dose response (AID 1045); format: functional;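 note: HCT116 colon tumor cells with beta catenin knocked out; cells exposed to compound for 60 hours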
[11] = viability of PTEN-deleted HCT116 cells – cell-based, HCT116 PTEN knockout, dose response (AID 1047); format: functional;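 note: HCT116 colon tumor cells with PTEN knocked out; cells exposed to compound for 60 hours before readout; potency for loss of cell viability measured by luminescence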
[12] = blockers of HIV-1 envelope-mediated cell-cell fusion – cherry-pick, dose response (AID 652057); format: functional, cell-based
[13] = NIH-3T3 fibroblast cytotoxicity, dose response, cytotoxicity control, cell-based, fluorescence, Alamar Blue, secondary assay (AID 2327); format: functional;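 note: NIH-3T3 mouse fibroblasts cultured with fluconazole at 8 µg/mL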
INS1 = assay: INS-1E survival protection against cytokine death – cell-based, luminescence, retest, dose response (AID 449756); format: functional; settings: Rattus norvegicus;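 note: cell death triggered by IL-1 beta plus TNF-alpha plus IFN-gamma mixture; protective hits raise ATP signal compared with cytokine alone wells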
[14] = fluconazole-exposed Candida albicans growth modulators – fluorescence, retest, confirmation (AID 2467); format: functional, cell-based
[15] = target: SWI/SNF-related matrix-associated actin-dependent regulator of chromatin subfamily A member 2 (Homo sapiens, UniProt P51531); assay: Luminescence-based cell-based high throughput dose response assay to identify activators of the function of SWI/SNF related, matrix associated, actin dependent regulator of chromatin, subfamily a, member 2 (SMARCA2, BRM).; format: functional
SWI/SNF-related matrix-associated actin-dependent regulator of chromatin subfamily A member 2, sequence (P51531 whole entry): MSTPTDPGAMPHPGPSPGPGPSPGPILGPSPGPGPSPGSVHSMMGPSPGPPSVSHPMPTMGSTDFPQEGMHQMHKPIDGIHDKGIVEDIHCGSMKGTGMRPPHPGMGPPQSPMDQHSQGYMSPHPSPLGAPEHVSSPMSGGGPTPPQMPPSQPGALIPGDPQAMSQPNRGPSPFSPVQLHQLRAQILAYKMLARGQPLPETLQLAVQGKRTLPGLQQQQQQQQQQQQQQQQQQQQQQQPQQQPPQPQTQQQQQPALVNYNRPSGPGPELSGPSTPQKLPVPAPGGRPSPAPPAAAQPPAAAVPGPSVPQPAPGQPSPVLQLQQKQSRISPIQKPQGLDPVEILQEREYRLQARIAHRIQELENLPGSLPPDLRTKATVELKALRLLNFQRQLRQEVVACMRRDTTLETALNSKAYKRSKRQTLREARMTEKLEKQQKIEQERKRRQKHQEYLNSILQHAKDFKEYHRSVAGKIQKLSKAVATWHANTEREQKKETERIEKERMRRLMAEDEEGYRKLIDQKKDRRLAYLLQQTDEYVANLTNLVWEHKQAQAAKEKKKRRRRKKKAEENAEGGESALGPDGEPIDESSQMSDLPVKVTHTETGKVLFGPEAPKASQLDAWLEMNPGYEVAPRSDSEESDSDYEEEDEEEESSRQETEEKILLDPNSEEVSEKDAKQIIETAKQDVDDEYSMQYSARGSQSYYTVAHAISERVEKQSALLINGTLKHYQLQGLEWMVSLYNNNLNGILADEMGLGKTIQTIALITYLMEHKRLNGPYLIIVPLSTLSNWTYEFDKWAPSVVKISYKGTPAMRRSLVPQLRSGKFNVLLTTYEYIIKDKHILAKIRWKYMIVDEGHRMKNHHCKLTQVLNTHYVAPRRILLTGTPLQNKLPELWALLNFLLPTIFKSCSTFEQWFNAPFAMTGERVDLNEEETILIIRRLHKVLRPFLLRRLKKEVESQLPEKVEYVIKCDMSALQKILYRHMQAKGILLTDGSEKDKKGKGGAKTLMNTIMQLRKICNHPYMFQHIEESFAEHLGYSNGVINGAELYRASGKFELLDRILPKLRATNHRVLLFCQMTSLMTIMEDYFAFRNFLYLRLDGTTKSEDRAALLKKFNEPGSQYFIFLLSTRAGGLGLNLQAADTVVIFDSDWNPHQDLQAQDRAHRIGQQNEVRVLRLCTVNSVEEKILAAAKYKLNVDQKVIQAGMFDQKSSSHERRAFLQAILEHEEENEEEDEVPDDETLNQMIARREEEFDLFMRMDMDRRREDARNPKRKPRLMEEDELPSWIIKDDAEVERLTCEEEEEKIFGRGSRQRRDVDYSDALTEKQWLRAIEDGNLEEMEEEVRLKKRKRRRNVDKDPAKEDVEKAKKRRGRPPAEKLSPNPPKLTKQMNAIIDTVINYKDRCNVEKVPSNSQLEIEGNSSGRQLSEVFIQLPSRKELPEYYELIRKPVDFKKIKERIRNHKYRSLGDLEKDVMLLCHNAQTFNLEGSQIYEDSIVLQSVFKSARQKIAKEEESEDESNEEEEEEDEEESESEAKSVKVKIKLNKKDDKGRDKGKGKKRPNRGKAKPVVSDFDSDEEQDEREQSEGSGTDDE

[16] = Counterscreen for activators of the function of SWI/SNF related, matrix associated, actin dependent regulator of chromatin, subfamily a, member 2 (SMARCA2, BRM): Luminescence-based cell-based high throughput dose response assay to identify non-selective compounds using the VP16 reporter assay.; format: functional

SMILES: CC1=Nn2c(nnc2-c2ccccn2)SC1
- AC50 [1]: 84.7 µM (active)

SMILES: CN(C)CCSc1nccc(-c2ccc(-c3ccnc(SCCN(C)C)n3)s2)n1
- GI50 (P388): 1.04 µM (active)
- GI50 (P388/ADR): 2.35 µM (inactive)
- GI50 (SN12K1): 11.1 µM (inactive)

SMILES: COc1nc(N)nc2nc[nH]c12
- GI50 (P388): 339 µM (inactive)
- GI50 (P388/ADR): 265 µM (inactive)
- GI50 (SN12K1): 383 µM (inactive)

SMILES: COc1cc2c(cc1OC)C(OC)N(C)c1c-2ccc2cc3c(cc12)OCO3 (stereo unspecified)
- GI50 (P388): 0.667 µM (active)
- GI50 (P388/ADR): 2.58 µM (inactive)
- GI50 (SN12K1): 0.652 µM (active)

SMILES: Nc1ccc(O)cc1C(=O)OCC(=O)c1ccc(C2CCCCC2)cc1
- AC50 [2]: 2.09 µM (active)
- AC50 [3]: 2.3 µM (active)
- AC50 [4]: 40.9 µM (active)
- AC50 [5]: 0.865 µM (active)

SMILES: NC1(C(=O)O)CCc2ccc(N(CCCl)CCCl)cc2C1 (stereo unspecified)
- GI50 (P388): 1.67 µM (inactive)
- GI50 (P388/ADR): 10.9 µM (inactive)
- GI50 (SN12K1): 64.1 µM (inactive)

SMILES: Cc1n[nH]c(NCCO)c1[N+](=O)[O-]
- EC50 (cells): > 29.9 µM (inactive)
- IC50 (Galanin receptor type 3): > 29.9 µM (inactive)

SMILES: O=C(Nc1ccc(Cn2cccn2)cc1)c1ccc(COc2ccccc2Br)cc1
- IC50 [6]: 4.43 µM (active)

SMILES: CCOc1ccc(C(=O)Nc2ccc3ccccc3c2)cc1Br
- IC50 [7]: > 99 µM (inactive)
- IC50 [8]: > 99 µM (inactive)
- IC50 [9]: > 99 µM (inactive)
- IC50 (Caspase-3): > 99 µM (inactive)

SMILES: COc1cccc(CNCCc2c[nH]c3ccccc23)c1OCc1ccccc1F
- AC50 [2]: 7.5 µM (active)
- AC50 [3]: 9.93 µM (active)
- AC50 [4]: 23.2 µM (active)
- EC50 [10]: 4.65 µM (active)
- EC50 [11]: 5.56 µM (active)
- AC50 [12]: 3.52 µM (active)
- EC50 [13]: > 150 µM (inconclusive)
- AC50 (INS1): 8.08 µM (active)
- AC50 [5]: 25.6 µM (active)
- EC50 [14]: 1.5 µM (active)

SMILES: C(/C=C/c1ccccc1)=N/Nc1cc(N2CCCC2)nc(N2CCCC2)n1
- IC50 [7]: 43.5 µM (active)
- IC50 [8]: 11 µM (active)
- IC50 [9]: 32.9 µM (active)
- IC50 (Caspase-3): > 99 µM (inactive)

SMILES: COc1ccc(/C=N/Nc2nc(NCc3ccccc3)nc(N(C)C)n2)cc1Br
- IC50 [7]: > 99 µM (inactive)
- IC50 [8]: > 99 µM (inactive)
- IC50 [9]: > 99 µM (inactive)
- IC50 (Caspase-3): > 99 µM (inactive)

SMILES: O=C(c1noc2c1CCc1ccccc1-2)N1CCOCC1
- EC50 [15]: > 91.2 µM (inactive)
- EC50 [16]: > 91.2 µM (inactive)

SMILES: COc1ccc(OC)c(-c2cc(C(=O)N3CCN(c4ncccn4)CC3)c3ccccc3n2)c1
- AC50 [1]: 127 µM (active)

SMILES: Cc1onc(-c2ccccc2Cl)c1C(=O)Nc1nc2c(s1)CCCC2
- IC50 [6]: 1.25 µM (active)
